Measured values published in patent publication US7425640B2, “Substituted 5-carboxyamide pyrazoles and [1,2,4]triazoles as antiviral agents” (priority 2004, dated 2008).
Where two headings read alike, the source gives them in different places.

Biological target: HCV RNA-dependent RNA polymerase NS5B (Δ21) (Hepatitis C virus genotype 1b, UniProt P26663)
Assay: Assay for HCV RNA-dependent RNA polymerase activity (SPA, [3H]-GTP incorporation)
Assay type: biochemical
Conditions: 50 nM NS5B (Δ21)
Method: Inhibitory activity of the present compounds against HCV RNA-dependent RNA polymerase was assayed according to the methods disclosed in United States Patent Application US2004/038993, content of which is incorporated herein by reference; and those described in Ferrari, E.; Wright-Minogue, J.; Fang, J. W. S.; Baroudy, B. M.; Lau, J. Y. N.; Hong, Z. J. Virol. 1999, 73, 1649.
Briefly, 50 μl reactions containing 20 mM HEPES (pH 7.3), 7.5 mM DTT, 20 units/ml RNasIN, 0.5 μg/ml biotinylated oligoG12, 5 μg/ml polyC, 5 μM GTP, 20 μCi/ml [^3H]-GTP, 10 mM MgCl2, 60 mM NaCl, 100 μg/ml BSA, and 50 nM NS5B (Δ21) were incubated at room temperature for three hours in 96-well plates with or without test compounds. Assay was terminated by the addition of 50 μl 10 mg/ml streptavidin-coated SPA beads supplemented with 100 mM EDTA, and the incorporation of labeled GTP determined by a TopCount Scintillation Counter. IC50 values were calculated from single experiments using 11 serial 2-fold dilutions (0.05-50 μM), and data were considered reliable only when the IC50 value of a positive internal control was within standard deviation range.

[1] = Δ21 Activity (IC50 μM), class symbols
[2] = read-out: Δ21 Activity (IC50 μM), class symbols
[3] = Δ21 Activity (IC50 μM), numeric values

Sequence of HCV RNA-dependent RNA polymerase NS5B (Δ21) (P26663 2420-2989, stated change not applied): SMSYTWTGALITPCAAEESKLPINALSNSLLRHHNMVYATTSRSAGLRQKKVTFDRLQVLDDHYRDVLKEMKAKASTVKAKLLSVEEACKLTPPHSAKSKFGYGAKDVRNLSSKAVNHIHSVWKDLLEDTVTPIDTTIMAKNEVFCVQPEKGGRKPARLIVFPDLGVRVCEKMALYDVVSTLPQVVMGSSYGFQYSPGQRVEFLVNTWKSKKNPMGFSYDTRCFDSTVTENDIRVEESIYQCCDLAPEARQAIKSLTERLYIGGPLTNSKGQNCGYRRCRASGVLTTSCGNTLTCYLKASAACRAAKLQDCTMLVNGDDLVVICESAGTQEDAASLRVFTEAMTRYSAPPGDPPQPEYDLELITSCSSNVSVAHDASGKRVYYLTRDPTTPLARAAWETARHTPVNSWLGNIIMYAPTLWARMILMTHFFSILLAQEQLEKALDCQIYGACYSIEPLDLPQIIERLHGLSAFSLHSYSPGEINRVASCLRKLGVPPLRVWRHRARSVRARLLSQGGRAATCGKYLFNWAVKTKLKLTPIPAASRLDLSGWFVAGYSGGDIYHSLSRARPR

SMILES	IC50 [2]	other results
O=C(Cn1nc(-c2nnn[nH]2)cc1C(=O)Nc1ccccc1OCc1ccccc1)N[C@H]1CCCC[C@@H]1OCc1ccccc1 [Compound 25]	–	IC50 [1]: 0.05 to 0.1 µM
O=C(Cn1nc(C(=O)NCCc2cccc(Cl)c2)cc1C(=O)N[C@H]1CCCC[C@@H]1OCc1ccccc1)N[C@H]1CCCC[C@@H]1OCc1ccccc1 [Compound 94]	0.1 to 1 µM	–
O=C(Cn1nc(C(=O)NCCc2ccc(Cl)cc2)cc1C(=O)N[C@H]1CCCC[C@@H]1OCc1ccccc1)N[C@H]1CCCC[C@@H]1OCc1ccccc1 [Compound 129]	0.1 to 1 µM	–
CC(C)CNC(=O)c1cc(C(=O)N[C@H]2CCCC[C@@H]2OCc2ccccc2)n(CC(=O)N[C@H]2CCCC[C@@H]2OCc2ccccc2)n1 [Compound 77]	0.1 to 1 µM	–
O=C(Cn1nc(C(=O)O)cc1C(=O)N[C@H]1CCCC[C@@H]1OCc1ccccc1)NC1CCCC[C@@H]1N1CCOCC1 (stereo partly drawn) [Compound 211]	–	IC50 [1]: > 1 µM
Cc1ccc(OCC2CCCCC2)c(NC(=O)c2cc(C(=O)NC#N)nn2CC(=O)N[C@H]2CCCC[C@@H]2OCc2ccccc2)c1 [Compound 4]	–	IC50 [1]: < 0.05 µM
O=C(Cn1nc(C(=O)Cc2ccccc2)cc1C(=O)N[C@H]1CCCC[C@@H]1OCc1ccccc1)N[C@H]1CCCC[C@@H]1OCc1ccccc1 [Compound 182]	–	IC50 [1]: > 1 µM
CN(C(=O)Cn1nc(C(=O)O)cc1C(=O)N(C)[C@H]1CCCC[C@@H]1OCc1ccccc1)[C@H]1CCCC[C@@H]1OCc1ccccc1 [Compound 158]	0.1 to 1 µM	–
O=C(Cn1nc(C(=O)NCCCc2ccccc2)cc1C(=O)N[C@H]1CCCC[C@@H]1OCc1ccccc1)N[C@H]1CCCC[C@@H]1OCc1ccccc1 [Compound 104]	0.1 to 1 µM	–
O=C(Cn1nc(C(=O)O)cc1C(=O)Nc1cc(C(F)(F)F)ccc1OCc1ccccc1)N[C@H]1CCCC[C@@H]1OCc1ccccc1 [drawing 253]	–	IC50 [3]: 0.041 µM
Cc1c(S(=O)(=O)Nc2cc(C(=O)N[C@H]3CCCC[C@@H]3OCc3ccccc3)n(CC(=O)N[C@H]3CCCC[C@@H]3OCc3ccccc3)n2)sc2ccc(Cl)cc12 [Compound 90]	0.1 to 1 µM	–
N#Cc1ccc(S(=O)(=O)Nc2cc(C(=O)N[C@H]3CCCC[C@@H]3OCc3ccccc3)n(CC(=O)N[C@H]3CCCC[C@@H]3OCc3ccccc3)n2)cc1 [Compound 42]	–	IC50 [1]: 0.05 to 0.1 µM
O=C(Cn1nc(NS(=O)(=O)c2ccc(O)c(C(=O)O)c2)cc1C(=O)N[C@H]1CCCC[C@@H]1OCc1ccccc1)N[C@H]1CCCC[C@@H]1OCc1ccccc1	–	IC50 [3]: 0.074 µM
O=C(Cn1nc(NS(=O)(=O)c2ccc(Br)cc2)cc1C(=O)N[C@H]1CCCC[C@@H]1OCc1ccccc1)N[C@H]1CCCC[C@@H]1OCc1ccccc1 [drawing 252]	–	IC50 [3]: 0.041 µM
O=C(Cn1nc(C(=O)O)cc1C(=O)NC12CC3CC(CC(C3)C1)C2)NC1CCCC[C@@H]1OCc1ccccc1 (stereo partly drawn) [Compound 207]	–	IC50 [1]: > 1 µM
COc1cccc(NC(=O)c2cc(C(=O)N[C@H]3CCCC[C@@H]3OCc3ccccc3)n(CC(=O)N[C@H]3CCCC[C@@H]3OCc3ccccc3)n2)c1 [Compound 16]	–	IC50 [1]: < 0.05 µM
O=C(Cn1nc(NC(=O)NC2CCCCC2)cc1C(=O)N[C@H]1CCCC[C@@H]1OCc1ccccc1)N[C@H]1CCCC[C@@H]1OCc1ccccc1 [Compound 118]	0.1 to 1 µM	–
Nc1c(C(=O)O)nn(CC(=O)N[C@H]2CCCC[C@@H]2OCc2ccccc2)c1C(=O)N[C@H]1CCCC[C@@H]1OCc1ccccc1 [Compound 147]	0.1 to 1 µM	–
CCCCNC(=O)Nc1cc(C(=O)N[C@H]2CCCC[C@@H]2OCc2ccccc2)n(CC(=O)N[C@H]2CCCC[C@@H]2OCc2ccccc2)n1 [Compound 124]	0.1 to 1 µM	–
O=C(Cn1nc(C(=O)O)cc1C(=O)N[C@H]1CCCC[C@@H]1OCc1ccccc1)Nc1ncccc1Oc1ccccc1 [Compound 160]	0.1 to 1 µM	–
O=C(Cn1nc(NS(=O)(=O)c2ccc(Cl)c(Cl)c2)cc1C(=O)N[C@H]1CCCC[C@@H]1OCc1ccccc1)N[C@H]1CCCC[C@@H]1OCc1ccccc1 [Compound 61]	0.1 to 1 µM	–
CC(C)C(=O)c1cc(C(=O)N[C@H]2CCCC[C@@H]2OCc2ccccc2)n(CC(=O)N[C@H]2CCCC[C@@H]2OCc2ccccc2)n1 [Compound 63]	0.1 to 1 µM	–
CCCONC(=O)c1cc(C(=O)N[C@H]2CCCC[C@@H]2OCc2ccccc2)n(CC(=O)N[C@H]2CCCC[C@@H]2OCc2ccccc2)n1 [Compound 164]	0.1 to 1 µM	–
O=C(Cn1nc(C(=O)O)cc1C(=O)Nc1cc(Cl)ccc1OCC1CCCCC1)N[C@H]1CCCC[C@@H]1OCc1ccccc1 [drawing 242]	–	IC50 [3]: 0.02 µM

SMILES	IC50 [2]	other results
O=C(Cn1nc(C(=O)NOCc2cccc3ccccc23)cc1C(=O)N[C@H]1CCCC[C@@H]1OCc1ccccc1)N[C@H]1CCCC[C@@H]1OCc1ccccc1 [Compound 68]	0.1 to 1 µM	–
O=C(Cn1nc(C(=O)NCCCN2CCCC2=O)cc1C(=O)N[C@H]1CCCC[C@@H]1OCc1ccccc1)N[C@H]1CCCC[C@@H]1OCc1ccccc1 [Compound 168]	–	IC50 [1]: > 1 µM
C[C@@H](NC(=O)c1cc(C(=O)N[C@H]2CCCC[C@@H]2OCc2ccccc2)n(CC(=O)N[C@H]2CCCC[C@@H]2OCc2ccccc2)n1)c1cccc2ccccc12 [drawing 246]	–	IC50 [3]: 0.15 µM
CC(C)NC(=O)Nc1cc(C(=O)N[C@H]2CCCC[C@@H]2OCc2ccccc2)n(CC(=O)N[C@H]2CCCC[C@@H]2OCc2ccccc2)n1 [Compound 167]	0.1 to 1 µM	–
CC(C)(C)ONC(=O)c1cc(C(=O)N[C@H]2CCCC[C@@H]2OCc2ccccc2)n(CC(=O)N[C@H]2CCCC[C@@H]2OCc2ccccc2)n1 [Compound 116]	0.1 to 1 µM	–
O=C(Cn1nc(C(=O)NCc2ccc(C(F)(F)F)cc2)cc1C(=O)N[C@H]1CCCC[C@@H]1OCc1ccccc1)N[C@H]1CCCC[C@@H]1OCc1ccccc1 [Compound 127]	0.1 to 1 µM	–
CCCCNC(=O)c1cc(C(=O)N[C@H]2CCCC[C@@H]2OCc2ccccc2)n(CC(=O)N[C@H]2CCCC[C@@H]2OCc2ccccc2)n1 [Compound 110]	0.1 to 1 µM	–
O=C(Cn1nc(NS(=O)(=O)c2cccc3cccnc23)cc1C(=O)N[C@H]1CCCC[C@@H]1OCc1ccccc1)N[C@H]1CCCC[C@@H]1OCc1ccccc1 [Compound 144]	0.1 to 1 µM	–
O=C(Cn1nc(C(=O)NCc2ccc(Cl)cc2Cl)cc1C(=O)N[C@H]1CCCC[C@@H]1OCc1ccccc1)N[C@H]1CCCC[C@@H]1OCc1ccccc1 [Compound 148]	0.1 to 1 µM	–
CCOC(=O)c1cc(C(=O)N[C@H]2CCCC[C@@H]2OCc2ccccc2)n(C(C)C(=O)N[C@H]2CCCC[C@@H]2OCc2ccccc2)n1 (stereo partly drawn) [Compound 186]	–	IC50 [1]: > 1 µM
CC(C)(C)c1ccc(S(=O)(=O)Nc2cc(C(=O)N[C@H]3CCCC[C@@H]3OCc3ccccc3)n(CC(=O)N[C@H]3CCCC[C@@H]3OCc3ccccc3)n2)cc1 [Compound 87]	0.1 to 1 µM	–
Cc1ccc(OCC(C)(C)C)c(NC(=O)c2cc(C(=O)O)nn2CC(=O)N[C@H]2CCCC[C@@H]2OCc2ccccc2)c1 [Compound 114]	0.1 to 1 µM	–
O=C(Cn1nc(NS(=O)(=O)c2ccc(F)cc2Cl)cc1C(=O)N[C@H]1CCCC[C@@H]1OCc1ccccc1)N[C@H]1CCCC[C@@H]1OCc1ccccc1 [Compound 71]	0.1 to 1 µM	–
O=C(Cn1nc(-c2cccs2)cc1C(=O)N[C@H]1CCCC[C@@H]1OCc1ccccc1)N[C@H]1CCCC[C@@H]1OCc1ccccc1 [Compound 170]	–	IC50 [1]: > 1 µM
CN(C)c1cccc2c(S(=O)(=O)NCCNC(=O)c3cc(C(=O)N[C@H]4CCCC[C@@H]4OCc4ccccc4)n(CC(=O)N[C@H]4CCCC[C@@H]4OCc4ccccc4)n3)cccc12 [Compound 64]	0.1 to 1 µM	–
CCOCCN(CCOCC)C(=O)c1cc(C(=O)N[C@H]2CCCC[C@@H]2OCc2ccccc2)n(CC(=O)N[C@H]2CCCC[C@@H]2OCc2ccccc2)n1 [Compound 177]	–	IC50 [1]: > 1 µM
N#Cc1cc(C(=O)N[C@H]2CCCC[C@@H]2OCc2ccccc2)n(CC(=O)N[C@H]2CCCC[C@@H]2OCc2ccccc2)n1 (stereo in doubt) [Compound 187, 2-[(2-benzyloxy-cyclohexylcarbamoyl)-methyl]-5-cyano-2H-pyrazole-3-carboxylic acid (2-benzyloxy-cyclohexyl)-amide]	–	IC50 [1]: > 1 µM
CN(Cc1cccc2ccccc12)C(=O)c1cc(C(=O)N[C@H]2CCCC[C@@H]2OCc2ccccc2)n(CC(=O)N[C@H]2CCCC[C@@H]2OCc2ccccc2)n1 [Compound 130]	0.1 to 1 µM	–
Cc1nn(C)c(Cl)c1S(=O)(=O)Nc1cc(C(=O)N[C@H]2CCCC[C@@H]2OCc2ccccc2)n(CC(=O)N[C@H]2CCCC[C@@H]2OCc2ccccc2)n1 [Compound 112]	0.1 to 1 µM	–
O=C(Cn1nc(C=NO)cc1C(=O)N[C@H]1CCCC[C@@H]1OCc1ccccc1)N[C@H]1CCCC[C@@H]1OCc1ccccc1 [Compound 143]	0.1 to 1 µM	–
CC(C)NC(=O)c1cc(C(=O)N[C@H]2CCCC[C@@H]2OCc2ccccc2)n(CC(=O)N[C@H]2CCCC[C@@H]2OCc2ccccc2)n1 [Compound 163]	–	IC50 [1]: > 1 µM
CN(C(=O)c1cc(C(=O)O)nn1CC(=O)N[C@H]1CCCC[C@@H]1OCc1ccccc1)[C@H]1CCCC[C@@H]1OCc1ccccc1 [Compound 133]	0.1 to 1 µM	–
O=C(Cn1nc(NS(=O)(=O)c2cccc3ccccc23)cc1C(=O)N[C@H]1CCCC[C@@H]1OCc1ccccc1)N[C@H]1CCCC[C@@H]1OCc1ccccc1 [Compound 55]	0.1 to 1 µM	–
Cc1ccc(OCC2CCCCC2)c(NC(=O)c2cc(C(=O)Nc3nnn[nH]3)nn2CC(=O)N[C@H]2CCCC[C@@H]2OCc2ccccc2)c1 [Compound 125]	0.1 to 1 µM	–
